Patent publication US20230183241A1, “CRYSTAL OF A HYPOXANTHINE COMPOUND” (Kissei Pharmaceutical Co., Ltd., priority 2020, published 2023)
Like-named read-outs stand apart in the source and are kept apart here.

Columns and labels:
human PHD2184-418 = molecular target: T1, human PHD2184-418 (Homo sapiens, UniProt Q9GZT9); experiment: PHD2 inhibitory test (fluorescence polarization, FITC-labeled HIF-1α556-574); settings: human PHD2 binding inhibitory activity; 2 μM 2-oxoglutarate, 37° C., 60 minutes
T1 construct: containing amino acid residues 184 to 418 of the protein represented by CAC42509; histidine tag (N); made in house; host or cells: E. coli BL21 (DE3), pET-30a(+) vector
Protocol: Test Example 1 PHD2 Inhibitory Test
(1) Expression and preparation of human PHD2184-418
Human PHD2184-418 containing amino acid residues 184 to 418 of the protein represented by CAC42509 (GenBank accession ID) was expressed and prepared by the following method.
An expression construct of human PHD2184-418 containing N-terminal histidine tag was introduced into pET-30α (+) vector, and the sequence was confirmed. This vector was introduced into BL21 (DE3) strain and cultured at 37° C. in LB medium containing antibiotics. After culturing, a cell lysis solution was added to the cells, and then the cells were disrupted and suspended by sonication. The disrupted suspension was centrifuged and the supernatant was purified by Ni column to give human PHD2184-418.
Human HIF-1α556-574 (FITC-labeled HIF-1α556-574), containing FITC-Ahx at the N-terminal of HIF-1α556-574 containing amino acid residues 556 to 574 (partial peptide) of human HIF-1α was used as a substrate. Using FITC-labeled HIF-1α556-574, the competitive inhibition between 2-oxoglutarate and the test compound (PHD inhibitor) was evaluated based on the change in fluorescence polarization of FITC-labeled HIF-1α556-574 by the following method.
An enzyme (human PHD2184-418) and the substrate were diluted with an assay buffer (pH 7.4) containing 10 mM HEPES, 150 mM NaCl, 10 μM MnCl2-4H2O, 2 μM 2-oxoglutarate and 0.05% Tween-2θ. […]

[1] = tested on: TNBS induced colitis model rat; experiment: Therapeutic effect in colitis model: suppression of intestinal permeability (FITC); type: in vivo; settings: 3 mg/kg orally once a day for 3 days, serum FITC
Protocol: Test Example 2 Therapeutic Effect in Colitis Model
(1) TNBS Induced Colitis Model Rat
Thus, the suppressive effect on the intestinal permeability based on oral administration of the test compound was evaluated as an indicator of medicinal efficacy.
SD male rats: 8-week-old SLC (Japan SLC) were used. Under pentobarbital anesthesia, 300 μL of TNBS (28 mg/mL) which was prepared by 50% ethanol was administered at a point 8 cm from the anus in the large intestine to cause inflammation. To the solvent-treated group was administrated 300 μL of 50% ethanol. Animals were fasted for 48 hours prior to administration of TNBS. The test compound (3 mg/kg) prepared by 0.05% methylcellulose solution was orally administered once a day from the next day, and it was administered for a total of 3 days. After administering for 3 days, 50 mg/kg FITC was orally administered 4 hours after the administration of the test compound. Blood samples were collected from jugular vein under isoflurane anesthesia after 4 hours. The serum was centrifuged and fluorescence intensity was detected by PHERAstar FSX (BMG Labtech) to measure the concentration of FITC permeating into circulating blood through the mesentery. The suppressive rate on the intestinal permeability of the test compound was calculated based on the value of the test substance-free group as 0 and the value of the TNBS-untreated group as 100.

[2] = Rat PK study: concentration of compounds in large intestine tissue and plasma; type: in vivo; settings: male, SD, 3 mg/kg oral
Protocol: Test Example 3 Concentration of Compounds in Large Intestine Tissue
The test compound (3 mg/kg/5 mL) prepared with 0.05% methylcellulose was orally administered to non-fasted rats (SD, 8-week-old, male, Japan SLC). Blood samples were collected from jugular vein at 0.25, 0.5, 1, 2, 4, 6 and 8 hours after the administration. Laparotomy was performed under isoflurane anesthesia and large intestine was isolated. The collected distal large intestine (about 5 cm) was cut open, and then the large intestine extracted was washed with saline on a dish. After washing, the large intestine was minced with small scissors. About 150 mg thereof was moved to a tube. To the tube was added 100 μL of saline, and the mixture was homogenized using shake master (1000 rpm×30 minutes). Samples were prepared by the addition with quadruple volume of saline as the final volume. The concentrations of the test compound in the large intestine tissue and the plasma were measured through a quantitative analysis using liquid chromatography-mass spectrometry (LC/MS).
As the comparative example, a compound described as example 55 in US2015/0239889 (WO2014/030716) (Compound A) was used.
Symbols in the table have the following meanings. Compound A: comparative example Cmax: maximum plasma concentration of the test compound in the case of oral administration (ng/mL) AUC: area under the plasma test compound concentration-time curve (ng*min/mL) Plasma: plasma test compound concentration after 8 hours (ng/mL) Colon: concentration of the test compound in the large intestine tissue after 8 hours (ng/g) C/P: ratio of the above Colon and Plasma

Solid stability test = type: physicochemical; settings: open condition at 40° C., 1 month; for Amount of the mass change of the compound 1: HPLC area normalization; for Crystal form change: powder X-ray diffraction; for Properties: appearance White powder
Protocol: Test Example 4: Solid Stability Test
Physicochemical stability and chemical stability for crystals of compound 1 (crystal forms I to IV) were examined.
Physicochemical stability: Each crystal was stored under open condition at 40° C. The powder X-ray diffraction of the sample was measured at the initial point and 1 month later, and the change in crystal form was confirmed. The change in properties was also observed at the same time. Chemical stability: Each crystal was stored under open condition at 40° C. The mass of the compound 1 was measured under the following HPLC measurement conditions at the initial point and 1 month later. [HPLC conditions] Detector: Ultraviolet and visible absorptiometer/wavelength: 225 nm
Column: L-column2 ODS, 3 μm, 4.6×150 mm (Chemicals Evaluation and Research Institute)
Column temperature: Constant temperature around 40° C. Flow rate: 1.0 mL/min Mobile phase A: A solution which was prepared with phosphoric acid to pH 2.3 after dissolving potassium dihydrogen phosphate in water to 20 mmol/L Mobile phase B: Acetonitrile Mobile phase ratios 0 to 30 minutes: mobile phase A/mobile phase B=81/19 30 to 50 minutes: mobile phase A/mobile phase B=81/19 to 25/75 50 to 55 minutes: mobile phase A/mobile phase B=25/75 55 to 55.01 minutes: mobile phase A/mobile phase B=25/75 to 81/19 55.01 to 75 minutes: mobile phase A/mobile phase B=81/19 Amount of injection: 5 μL Sample cooler: 4° C. Dissolution solvent: Mixed solution (mobile phase A/acetonitrile=75/25) Sample solution: Sample was dissolved in dissolution solvent and adjusted to about 1.0 mg/mL
Excluding the peaks derived from the blank, the peak areas of the compound 1 and an analogous substance were measured by automatic integration, and the mass of the compound 1 was calculated by area normalization method. Further, the amount of the mass change of the compound 1 after the storage was calculated.

T1 sequence (Q9GZT9 184-418): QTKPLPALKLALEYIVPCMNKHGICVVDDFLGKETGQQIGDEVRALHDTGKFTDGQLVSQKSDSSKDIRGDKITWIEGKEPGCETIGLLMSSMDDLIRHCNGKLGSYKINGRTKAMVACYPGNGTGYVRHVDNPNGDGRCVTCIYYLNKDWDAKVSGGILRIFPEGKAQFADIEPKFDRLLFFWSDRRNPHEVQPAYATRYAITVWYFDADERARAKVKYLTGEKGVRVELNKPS

SMILES	IC50 (human PHD2184-418) [nM]	concentration at 8 h ([2]; large intestine tissue (distal), read-out: Colon: concentration in the large intestine tissue after 8 hours) [ng/g]	Kp at 8 h ([2]; large intestine tissue / plasma, read-out: C/P: ratio of Colon and Plasma)	concentration at 8 h ([2]; plasma, read-out: Plasma: plasma test compound concentration after 8 hours) [ng/mL]	Amount of the mass change of the compound 1 (Solid stability test) [%]	Crystal form change (Solid stability test)	Properties (Solid stability test)	Inhibition (suppressive rate on the intestinal permeability, mean) [1] [%]
COc1ccc(Cn2cnc3nc(-n4cc(C(=O)O)cn4)[nH]c(=O)c32)cc1 [Compound 1, 1-(7-(4-Methoxybenzyl)-6-oxo-6,7-dihydro-1H-purin-2-yl)-1H-pyrazole-4-carboxylic acid]	440	209	> 209	< 1	–	–	–	83
COc1ccc(Cn2cnc3nc(-n4cc(C(=O)O)cn4)[nH]c(=O)c32)cc1 [Crystal form I of the compound 1, 1-(7-(4-Methoxybenzyl)-6-oxo-6,7-dihydro-1H-purin-2-yl)-1H-pyrazole-4-carboxylic acid]	–	–	–	–	−0.05	No change	no change	–
COc1ccc(Cn2cnc3nc(-n4cc(C(=O)O)cn4)[nH]c(=O)c32)cc1 [Crystal form II of the compound 1, 1-(7-(4-Methoxybenzyl)-6-oxo-6,7-dihydro-1H-purin-2-yl)-1H-pyrazole-4-carboxylic acid]	–	–	–	–	0.03	No change	no change	–

The next lines start with results.

IC50 (human PHD2184-418) [nM]	concentration at 8 h ([2]; large intestine tissue (distal), read-out: Colon: concentration in the large intestine tissue after 8 hours) [ng/g]	Kp at 8 h ([2]; large intestine tissue / plasma, read-out: C/P: ratio of Colon and Plasma)	concentration at 8 h ([2]; plasma, read-out: Plasma: plasma test compound concentration after 8 hours) [ng/mL]	Amount of the mass change of the compound 1 (Solid stability test) [%]	Crystal form change (Solid stability test)	Properties (Solid stability test)	SMILES	Inhibition (suppressive rate on the intestinal permeability, mean) [1] [%]
–	–	–	–	0.00	No change	no change	COc1ccc(Cn2cnc3nc(-n4cc(C(=O)O)cn4)[nH]c(=O)c32)cc1 [Crystal form III of the compound 1, 1-(7-(4-Methoxybenzyl)-6-oxo-6,7-dihydro-1H-purin-2-yl)-1H-pyrazole-4-carboxylic acid]	–
–	–	–	–	0.00	No change	no change	COc1ccc(Cn2cnc3nc(-n4cc(C(=O)O)cn4)[nH]c(=O)c32)cc1 [Crystal form IV of the compound 1, 1-(7-(4-Methoxybenzyl)-6-oxo-6,7-dihydro-1H-purin-2-yl)-1H-pyrazole-4-carboxylic acid]	–
